From the kinase profiling compilation of Christmann-Franck et al. (2016) come the findings set out here.

pKi: −log10 of the molar value. Where only a bound is given, the exact number is not on record here.

One may read the pKi as −log10 of the Ki, conventionally taken in molar units.

The target of this assay is SGK1 (human) (UniProt O00141). As to the kind of experiment: Flashplate.
SGK1 (human), sequence (O00141 whole entry, looked up): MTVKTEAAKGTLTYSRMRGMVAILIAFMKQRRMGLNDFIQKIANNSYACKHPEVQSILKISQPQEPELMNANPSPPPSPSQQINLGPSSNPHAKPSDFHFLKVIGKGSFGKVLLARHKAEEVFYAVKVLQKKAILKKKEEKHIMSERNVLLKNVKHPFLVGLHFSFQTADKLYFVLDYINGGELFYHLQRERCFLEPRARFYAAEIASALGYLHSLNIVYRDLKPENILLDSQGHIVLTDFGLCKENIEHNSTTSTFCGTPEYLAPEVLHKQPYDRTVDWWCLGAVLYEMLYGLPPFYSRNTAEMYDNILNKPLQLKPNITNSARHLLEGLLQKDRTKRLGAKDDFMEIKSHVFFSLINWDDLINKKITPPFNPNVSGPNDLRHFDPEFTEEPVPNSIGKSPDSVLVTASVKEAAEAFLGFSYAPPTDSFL
Compound `CC(C)(CO)CNc1nccc(-c2c(-c3ccc(F)cc3)nc3c(OCC(F)(F)F)nccn23)n1` had a pKi of under 5.00. The result for `Cc1ccc(NC(=O)Nc2ccc(-c3csc4c(-c5cnn(C(C)C(=O)N(C)C)c5)cnc(N)c34)cc2)cc1` (configuration not stated) reads under 5.00. The value for `Cn1cc(-c2cnn3c(N)c(-c4ccc(NC(=O)Nc5cccc(C(F)(F)F)c5)cc4)cnc23)cn1` was under 5.00; that for `O=C(N[C@H](CO)c1ccccc1)N1CC=C(c2c[nH]c3ncccc23)CC1` was 6.40.

`NC(=O)c1cc2c(-c3cc(C(F)(F)F)cc(C(F)(F)F)c3)cncc2s1` had a negative logarithm of the Ki (pKi) of under 5.00. The value for `COc1cccc([C@@H](C)NC(=O)c2ccc(-c3ccncc3C)cc2)c1` was 6.70; that for `CCc1nccn2c(-c3ccnc(NCC(C)(C)O)n3)c(-c3ccc(F)cc3F)nc12` was under 5.00; that for `Cc1cccc(NC(=O)Cc2ccc(-c3cccc4[nH]nc(N)c34)cc2)c1` was 6.10. The result for `Nc1ccc(-c2cncc(OC[C@@H](N)Cc3c[nH]c4ccccc34)c2)cc1C(=O)c1cccc(Cl)c1` reads under 5.00; that for `Cc1c(-c2cccc(OCc3ccccc3)c2)c2c(N)ncnc2n1[C@H]1C[C@H](CN2CCCC2)C1`, under 5.00. `CCOc1nc(NC(=O)Cc2cc(OC)c(S(C)(=O)=O)cc2OC)cc(N)c1Cl`: the pKi is under 5.00.

As for `Nc1nccn2c(C3CC(CN4CCCC4)C3)nc(-c3cccc(OCc4ccccc4)c3)c12` (configuration not stated), the negative-log Ki (pKi) is under 5.00. Compound `Cc1ccc(NC(=O)Nc2ccc(-c3csc4c(-c5cnn(C)c5)cnc(N)c34)cc2)cc1` had a pKi of under 5.00. The compound `CC(C)(O)Cc1nnc2ccc(-c3c(-c4ccc(F)cc4F)nc4occn34)nn12` gave a negative logarithm of the Ki (pKi) of under 5.00. The result for `CCCCCCCCCCCCOc1ccc(NC(=N)N)cc1NC(=N)N` reads under 5.00; that for `CS(=O)c1ccc(-c2nc(-c3ccc(F)cc3)c(-c3ccncc3)[nH]2)cc1` (configuration not stated), under 5.10; that for `c1cc2cc(-c3ccc4cn[nH]c4c3)cnc2[nH]1`, 5.70. The result for `O=C(Nc1cccc(C(F)(F)F)n1)Nc1ccnc2c(Cl)cccc12` reads under 5.00; that for `NC(=O)c1c(OCc2c(F)cc(Br)cc2F)nsc1NC(=O)NCCCCN1CCCC1`, under 5.00. The result for `CC(C)Cn1c(N)nc2ccc(-c3c(-c4ccc(F)cc4)nc4sccn34)cc21` reads under 5.00; that for `CC(C)N(C(=O)Nc1ccc2nc(-c3ccco3)c(-c3ccco3)nc2c1)C(C)C`, under 5.00; that for `CN1CC[C@@H](c2c(O)cc(O)c3c(=O)cc(-c4ccccc4Cl)oc23)[C@@H](O)C1`, under 5.00.

`CCc1nc2c(c3cc(OC)c(OC)cc13)C(=O)NC2=O` had a pKi of under 5.00. The result for `CN(c1ncccc1CNc1nc(Nc2ccc3c(c2)CC(=O)N3)ncc1C(F)(F)F)S(C)(=O)=O` reads 5.60.

`N#Cc1ncc2nc1OCCCCCOc1cc(CCCO)c(Cl)cc1NC(=O)N2` gave a pKi of under 5.00. For `CSc1c[nH]c2ncnc(NCCCO)c12`, the pKi was under 5.00. The result for `Cc1cccc(-c2[nH]c(-c3ccnc(N)n3)cc2C(N)=O)c1C` reads under 5.00; that for `COc1cccc([C@@H](C)NC(=O)c2ccc(-c3ccncc3F)cc2OC)c1`, 6.20.

As to `CN1CCN(Cc2ccc3c(c2)Cc2c(-c4csc(C#CCOCC5CC5)c4)n[nH]c2-3)CC1`, the pKi is under 5.00. The value for `C[C@@H](Nc1nccc(-c2c(-c3ccc(F)cc3)nc3occn23)n1)c1ccccc1` was under 5.00; that for `Cc1n[nH]c2ccc(-c3cncc(OC[C@@H](N)Cc4cccc(OC(F)(F)F)c4)c3)cc12` was 6.50; that for `Nc1ccc(-c2csc3c(/C=C/c4nc5ccccc5[nH]4)cnc(N)c23)cc1` was 5.10. `CCn1c(C)c(-c2ccnc(Nc3cccc(OC)c3)n2)sc1=O` showed a pKi of 6.50.

`O=C(Nc1cccc(N2CCOCC2)n1)Nc1ccnc2c(C(F)(F)F)cccc12`: the negative logarithm of the Ki (pKi) was under 5.00. Regarding `Cc1cccc(Nc2nccc(Nc3c(N[C@H](C)C(C)(C)C)c(=O)c3=O)n2)c1`, the negative-log Ki (pKi) is 6.00. The result for `COc1ccc(CNC(=O)Nc2ncc([N+](=O)[O-])s2)cc1` reads under 5.00; that for `CC(=O)N(c1ccncc1)c1c(N[C@H](C)C(C)(C)C)c(=O)c1=O`, under 5.00.

In turn, `CC(C)c1nnc2ccc(-c3c(-c4ccc(F)cc4F)nc4n3CCC4)nn12` gave a negative-log Ki (pKi) of under 5.00.

On to `CNC(=O)/C=C/c1cnc(N)c2c(-c3ccc4c(c3)OCO4)csc12`, for which the pKi is under 5.00.

On to `COc1cc(/C=C(\C#N)c2nc3ccccc3[nH]2)c(Br)cc1O`, for which the pKi was 5.20. The value for `COc1cc(/C=C(\C#N)c2n[nH]c(N)c2C#N)ccc1O` was under 5.00; that for `O=S(=O)(NCCNC/C=C/c1ccc(Br)cc1)c1cccc2cnccc12` was 6.00; that for `COc1cc2cnc3c(c2cc1OC)C(=O)NC3=O` was under 5.00. The result for `C/C(=N\NC(=O)c1nnn(-c2nonc2N)c1-c1ccccc1)c1ccco1` reads under 5.00.

The compound `Nc1n[nH]c2cc(-c3ccc(NC(=O)Nc4cccc(C(F)(F)F)c4)cc3)ccc12` gave a negative-log Ki (pKi) of under 5.00. The result for `Nc1n[nH]c2cccc(-c3ccc(NC(=O)Nc4cc(C(=O)O)ccc4F)cc3)c12` reads 6.40; that for `Cc1c(C=O)c(O)n2c(nc3ccccc32)c1C#N`, under 5.00; that for `NC(=O)c1cccc2[nH]c(-c3cccc(NCCN4CCCC4)n3)nc12`, under 5.00. With `CC(=O)c1cccc(-c2cnc3[nH]ccc3c2)c1`, the negative-log Ki (pKi) was under 5.00. `CCCC(=O)Nc1n[nH]c2ccc(-c3cn(Cc4ccccc4)nn3)cc12` showed a negative-log Ki (pKi) of 6.00. The value for `Oc1ccc(-c2n[nH]c(Nc3cccc(Cl)c3)c2-c2ccc(O)cc2)cc1` was 6.20; that for `Cc1cccc(NC(=O)Nc2ccc(-c3csc4c(-c5cn[nH]c5)cnc(N)c34)cc2)c1` was under 5.00; that for `Nc1n[nH]c2nnc(-c3ccccc3)c(-c3ccccc3)c12` was 5.60. The result for `CCNC(=O)c1cnc(N)c2c(-c3ccc(NC(=O)Nc4cccc(F)c4)cc3)csc12` reads under 5.00; that for `NNc1cc(N2CCOCC2)nc(OCCc2ccccn2)n1`, under 5.00; that for `Cc1cc(C)cc(NC(=O)Nc2ccc(-c3c(C)sc4ncnc(N)c34)cc2)c1`, 5.10. Turning to `Fc1ccc(-c2nc3occn3c2-c2ccnc(NC3CCNCC3)n2)cc1`, the pKi was under 5.00.

Turning to `Cc1cc(C)cc(NC(=O)Nc2ccc(-c3cccc4c3CNC4=O)c(C)c2)c1`, the negative logarithm of the Ki (pKi) was under 5.00.

In turn, `O=C1NC(=O)C(c2cnc3ccccn23)=C1c1cn2c3c(cccc13)CN(C(=O)N1CCOCC1)CC2` had a pKi of under 5.00. `O=C(NC(CO)Cc1ccc(Cl)cc1)c1ccc(-c2ccncc2)cc1` (configuration not stated) had a negative logarithm of the Ki (pKi) of under 5.00. The value for `Cc1cc(C)c(/C=C2\C(=O)Nc3ccccc32)[nH]1` was 5.70; that for `CN(C)CC(=O)Nc1n[nH]c2ccc(-c3cn(Cc4ccccc4)nn3)cc12` was 5.70; that for `COc1cc(-c2ccc3c(c2)Nc2ccc(CCOc4ccc(N5CCOCC5)cc4)cc2NC3=O)ccc1CC#N` was under 5.00. The result for `CN1CC[C@H]1COc1cncc(CCc2ccncc2)c1` reads under 5.00. Compound `COc1cc(-c2ccc3[nH]nc(C(=O)Nc4ccccc4)c3c2)ccc1O` showed a pKi of under 5.00. In turn, `COc1cc2ncn(-c3cc(OCc4ccccc4C(F)(F)F)c(C(=O)O)s3)c2cc1OC` gave a pKi of under 5.00.

As to `O=C(Nc1n[nH]c2ccc(-c3cn(Cc4ccccc4)nn3)cc12)c1cccc(F)c1`, the pKi was 7.00.
